Source: ChEMBL document CHEMBL4828705, “Inhibition studies on carbonic anhydrase isoforms I, II, IV and IX with N-arylsubstituted secondary sulfonamides featuring a bicyclic tetrahydroindazole scaffold” (Eur J Med Chem, 2021)

Experiments:
[1] = target: Carbonic anhydrase 2 (Homo sapiens, UniProt P00918); assay: Inhibition of recombinant human CA2 preincubated for 15 mins by phenol red dye-based stopped-flow CO2 hydration assay
[2] = target: Carbonic anhydrase 9 (Homo sapiens, UniProt Q16790); assay: Inhibition of recombinant human CA9 preincubated for 15 mins by phenol red dye-based stopped-flow CO2 hydration assay
[3] = target: Carbonic anhydrase 1 (Homo sapiens, UniProt P00915); assay: Inhibition of recombinant human CA1 preincubated for 15 mins by phenol red dye-based stopped-flow CO2 hydration assay
Carbonic anhydrase 1, sequence (P00915 whole entry): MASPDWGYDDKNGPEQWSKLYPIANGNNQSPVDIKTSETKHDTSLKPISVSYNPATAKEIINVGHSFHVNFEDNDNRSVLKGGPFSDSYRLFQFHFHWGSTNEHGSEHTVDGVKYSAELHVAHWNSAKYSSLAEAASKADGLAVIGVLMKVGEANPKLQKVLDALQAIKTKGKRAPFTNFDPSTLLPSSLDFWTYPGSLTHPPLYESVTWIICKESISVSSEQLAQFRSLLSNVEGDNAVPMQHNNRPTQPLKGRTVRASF

[4] = target: Carbonic anhydrase 4 (Homo sapiens, UniProt P22748); assay: Inhibition of recombinant human CA4 preincubated for 15 mins by phenol red dye-based stopped-flow CO2 hydration assay
Carbonic anhydrase 4, sequence (P22748 whole entry): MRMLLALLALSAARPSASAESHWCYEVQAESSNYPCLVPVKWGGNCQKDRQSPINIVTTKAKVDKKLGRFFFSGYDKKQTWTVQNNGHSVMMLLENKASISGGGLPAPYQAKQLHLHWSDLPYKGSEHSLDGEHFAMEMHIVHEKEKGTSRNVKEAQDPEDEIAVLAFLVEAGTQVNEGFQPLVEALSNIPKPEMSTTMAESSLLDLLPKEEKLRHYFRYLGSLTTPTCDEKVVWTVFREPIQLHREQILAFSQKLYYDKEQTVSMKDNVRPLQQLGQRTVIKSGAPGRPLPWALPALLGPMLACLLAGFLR

Row | SMILES | Ki [1] | Ki [2] | Ki [3] | Ki [4]
1 | O=C1CC(c2ccccc2)Cc2c1cnn2-c1ccc(S(=O)(=O)Nc2ccccc2)cc1 (centres undefined) |  | 95.4 µM |  | 
2 | O=C1CC(c2ccccc2)Cc2c1cnn2-c1ccc(S(=O)(=O)Nc2cccc(Cl)c2)cc1 (centres undefined) |  | 41.8 µM |  | 
3 | Cc1cccc(NS(=O)(=O)c2ccc(-n3ncc4c3CC(c3ccccc3)CC4=O)cc2)c1 (centres undefined) |  | 61.5 µM |  | > 100 µM
4 | O=C1CC(c2ccccc2)Cc2c1cnn2-c1ccc(S(=O)(=O)Nc2ccc([N+](=O)[O-])cc2)cc1 (centres undefined) |  | 4.1 µM |  | 
5 | COc1cccc(NS(=O)(=O)c2ccc(-n3ncc4c3CC(c3ccccc3)CC4=O)cc2)c1 (centres undefined) |  | 57.3 µM |  | 
6 | Cc1ccc(NS(=O)(=O)c2ccc(-n3ncc4c3CCCC4=O)cc2)cc1 |  | 39.2 µM |  | 
7 | O=C1CCCc2c1cnn2-c1ccc(S(=O)(=O)Nc2ccccc2)cc1 |  | 97.9 µM |  | 
8 | Cc1ccc(NS(=O)(=O)c2ccc(-n3ncc4c3CC(c3ccccc3)CC4=O)cc2)cc1 (centres undefined) |  | 46.7 µM |  | 
9 | O=C1CC(c2ccccc2)Cc2c1cnn2-c1ccc(S(=O)(=O)Nc2ccc(Cl)cc2)cc1 (centres undefined) |  | 47 µM |  | 
10 | COc1ccc(NS(=O)(=O)c2ccc(-n3ncc4c3CC(c3ccccc3)CC4=O)cc2)cc1 (centres undefined) |  | 40 µM |  | 
11 | COc1ccc(NS(=O)(=O)c2ccc(-n3ncc4c3CCCC4=O)cc2)cc1 |  | 56.5 µM |  | 
12 | O=C1CCCc2c1cnn2-c1ccc(S(=O)(=O)Nc2ccc(Cl)cc2)cc1 |  | > 100 µM |  | 

Other lines, results leading:

Row | Ki [1] | Ki [2] | Ki [3] | Ki [4] | SMILES
13 | > 100 µM | > 100 µM |  |  | O=C1CCCc2c1cnn2-c1ccc(S(=O)(=O)Nc2cccc([N+](=O)[O-])c2)cc1
14 | > 100 µM | > 100 µM | > 100 µM |  | CC1(C)CC(=O)c2cnn(-c3ccc(S(=O)(=O)Nc4cccc(Cl)c4)cc3)c2C1
15 |  | > 100 µM | > 100 µM |  | CC1(C)CC(=O)c2cnn(-c3ccc(S(=O)(=O)Nc4ccc([N+](=O)[O-])cc4)cc3)c2C1
16 |  | > 100 µM | > 100 µM |  | Cc1ccc(NS(=O)(=O)c2ccc(-n3ncc4c3CC(C)(C)CC4=O)cc2)cc1
17 |  | > 100 µM |  |  | CC1(C)CC(=O)c2cnn(-c3ccc(S(=O)(=O)Nc4ccccc4)cc3)c2C1
18 |  | 83.7 µM |  |  | O=C1CCCc2c1cnn2-c1ccc(S(=O)(=O)Nc2ccc([N+](=O)[O-])cc2)cc1
19 |  | > 100 µM |  |  | COc1cccc(NS(=O)(=O)c2ccc(-n3ncc4c3CC(C)(C)CC4=O)cc2)c1
20 | > 100 µM | > 100 µM | > 100 µM |  | Cc1cccc(NS(=O)(=O)c2ccc(-n3ncc4c3CC(C)(C)CC4=O)cc2)c1
21 |  | > 100 µM | > 100 µM |  | CC1(C)CC(=O)c2cnn(-c3ccc(S(=O)(=O)Nc4cccc([N+](=O)[O-])c4)cc3)c2C1
22 |  | 37.1 µM |  |  | O=C1CCCc2c1cnn2-c1ccc(S(=O)(=O)Nc2cccc(Cl)c2)cc1
23 |  | 33 µM |  |  | Cc1cccc(NS(=O)(=O)c2ccc(-n3ncc4c3CCCC4=O)cc2)c1
24 |  | > 100 µM |  |  | COc1ccc(NS(=O)(=O)c2ccc(-n3ncc4c3CC(C)(C)CC4=O)cc2)cc1
25 |  | 84.7 µM |  | > 100 µM | O=C1CC(c2ccccc2)Cc2c1cnn2-c1ccc(S(=O)(=O)Nc2cccc([N+](=O)[O-])c2)cc1 (centres undefined)
26 | > 100 µM | > 100 µM |  | > 100 µM | COc1cccc(NS(=O)(=O)c2ccc(-n3ncc4c3CCCC4=O)cc2)c1
27 |  | > 100 µM |  |  | CC1(C)CC(=O)c2cnn(-c3ccc(S(=O)(=O)Nc4ccc(Cl)cc4)cc3)c2C1
